Values joined by “and” are separate entries in the source; they are usually repeats but may differ in a detail not shown here. Equal entries are not always repeated.

The test system of assay [1] is digoxin antiserum (antibody). The experiment in a line: radioimmunoassay: % of I-125 hapten bound by antibody in presence of digoxin standards (standard curve). The format is binding, goats. As to conditions: for Mean % bound: mean of triplicate; for % bound: single vial. As for the experimental part: (§1) The relative amounts of antibody bound radioactive hapten and unbound radioactive hapten are then determined. Preferably, this is accomplished by a determination of the radioactive hapten in each vial by means of a gamma counter. The count rate of vial components following removal of the resin strip reflects the serum concentration of cardiotonic glycoside. A precount determination of radioactivity in the vial is made at the outset of the test on a gamma counter. The percent of radioactive hapten which is antibody bound is then calculated as follows: [formula] With increasing quantities of nonradioactive cardiotonic glycoside (patient or standard), the percent radioactive hapten bound by the antibody decreases. Based upon this principle, a standard curve is prepared by plotting the percent radioactive hapten bound by each of a series of standard sera versus their respective cardiotonic glycosides concentration. The patient's total circulating serum cardiotonic glycoside concentration is then readily determined by comparing the percent radioactive hapten bound in the patient's serum sample to the standard curve.
This serum is produced in goats by the monthly injection of 7.5 mg of BSA-Digoxin conjugate emulsified in complete Freunds adjuvant. The conjugate is prepared by periodate oxidation according to Butler and Chen, Biochem J. 1970. Twenty mg are dissolved in one ml of phosphate buffer solution which is added dropwise with rapid mixing through a 1.0 ml tuberculin syringe to an equal volume of complete adjuvant. The material is injected into multiple subcutaneous sites.
The final dilutions are such that they insure binding eq 60 ± 5% of 3-0-succinyl digoxigenin-L-tyrosine* and displacement by non-radioactive digoxin.
A. Reaction vials: To 99 parts phosphate buffer solution add 1 part of reagent alcohol containing 7-100 nCi/10 ul of 3-0-succinyl digoxigenin tyrosine. Mix mechanically for 1 minute and transfer to an automatic pipette or dispensing device. 1 ml of the above prepared combination reagent is transferred to each reaction vial and the vials are stored at -20° C. (or lower).
C. Digoxin, antiserum diluted as described above to contain the dilution of antibody binding 60% of a 7-100 nc quantity of 3-0-succinyl digoxigenin tyrosine 125-I.
(§2) The following procedure is employed in carrying out the radioimmumoassay method of the invention to prepare a standard curve.
(§3) 1. The required number of reaction vials is removed from the freezer and the net precount per minute is determined for each vial during or after thawing. The thawed reaction vials are gently agitated. Preferably, the test is carried out in triplicate.
(§4) 2. 50 microliters each of the 0, 0.4, 1.0, 2.0, 3.0 and 5.0 ng/ml standard is added to 18 reaction vials.
(§5) 3. 50 microliters of antiserum is added to each of the reaction vials and the caps replaced.
(§6) 4. The vial contents are mixed by rotating for one minute on a rotator at 12-14 rpm or by gently agitating the vial rack.
(§7) 5. The reaction vials are incubated at room temperature for 30 minutes ± 5 minutes.
(§8) 6. One ion-exchange resin strip is inserted in each reaction vial and the caps replaced.
(§9) 7. The reaction vials are rotated for 30 minutes at ambient temperature (20° C. to 30° C.) on a rotator which produces end-over-end mixing at 12-14 rpm.
(§10) 8. The resin strips are carefully removed and discarded. The resin strips should be allowed to drain over the vials by touching the strip lightly on top of the vial prior to replacing the vial caps.
(§11) 9. The net postcount per minute is determined for each reaction vial.
(§12) 10. The % I-125 bound is calculated by dividing the net CPM postcount by the net CPM precount and multiplying by 100. [formula]
11. The values obtained should range from 60 + 5% at the 0 ng/ml concentration of digoxin/ml of serum to 20 ± 5% at 10 ng/ml.
The above procedure was followed for 3-succinyl-digoxigenin-L-tyrosin, 3-adipyl-digoxigenin-L-tryosine and 3-carbodigoxigenin-glycyl-L-tyrosine. […]

Assay [2] deals with antiserum containing antibody. The experiment in a line: radioimmunoassay: % of I-125 hapten bound by antibody in presence of digitoxin standards (standard curve). The format is binding. As to conditions: for Mean % bound: mean of triplicate; for % bound: single vial. As for the experimental part: as §1
These are produced by drying U.S.P. Reference Digitoxin at 100° C. for 2 hours in a vacuum desiccator. 50 mg is quantitatively transferred to a 100 ml volumetric flask and brought to that volume with methyl alcohol at 25° C. After mixing, 1 ml is transferred to another 100 ml volumetric flask and diluted to 10 ml with methyl alcohol. This 10 ml is diluted to 100 ml with distilled water. 1 ml is transferred to a 50 ml volumetric flask and diluted to 50 ml with digitoxin free normal human serum containing 0.1% NaN3. The product contains 100 ng/ml of digitoxin. This is diluted with normal human serum containing to 0.1% NaN3 to form a […] standard.
as §2, §3, §4, §5, §6, §7, §8, §9, §10, §11, §12
Essentially the same procedure was followed for 3-succinyl-digitoxigenin-L-tyrosine except 25 microliters of each digitoxin standard was used.

Where [3] appears, read: digitoxin standard 0.0 ng/ml, 25 microliters.
The mark [4] stands for this setting: digitoxin standard 4.0 ng/ml, 25 microliters.
Where [5] appears, read: digitoxin standard 10.0 ng/ml, 25 microliters.
[6] abbreviates: digitoxin standard 20.0 ng/ml, 25 microliters.
Setting [7] is: digitoxin standard 30.0 ng/ml, 25 microliters.
Where [8] appears, read: digitoxin standard 50.0 ng/ml, 25 microliters.
Setting [9] is: digitoxin standard 100.0 ng/ml, 25 microliters.

In the case of `C[C@]12CC[C@H](OC(=O)CCCCC(=O)N[C@@H](Cc3ccc(O)cc3)C(=O)O)C[C@H]1CC[C@@H]1[C@@H]2C[C@@H](O)[C@]2(C)[C@@H](C3=CC(=O)OC3)CC[C@]12O` [3-adipyl-digoxigenin-L-tyrosine], the Mean % bound in assay [1] (control, no antibody) stood at 3.9%; in assay [1] (digoxin standard 0 ng/ml), 65.2%; in assay [1] (digoxin standard 1.0 ng/ml), 46.8%; in assay [1] (digoxin standard 2.0 ng/ml), 33.4%; in assay [1] (digoxin standard 3.0 ng/ml), 25.4%; in assay [1] (digoxin standard 5.0 ng/ml), 17.2%. In addition, the Mean % bound in assay [1] (digoxin standard .4 ng/ml) is given as 57.5%. For the same compound, the “% bound” value is 4.0% and 3.6% in assay [1] (control, no antibody); 66.4% and 64.8% and 64.3% in assay [1] (digoxin standard 0 ng/ml); 46.1% and 47.0% and 47.3% in assay [1] (digoxin standard 1.0 ng/ml); 34.8% and 32.2% and 33.3% in assay [1] (digoxin standard 2.0 ng/ml); 26.1% and 25.1% and 25.0% in assay [1] (digoxin standard 3.0 ng/ml); 16.9% and 16.5% and 18.0% in assay [1] (digoxin standard 5.0 ng/ml). Further, the “% bound” value in assay [1] (digoxin standard .4 ng/ml) was 57.8% and 57.4% and 57.2%.

For `C[C@]12CC[C@H](OC(=O)NCC(=O)N[C@@H](Cc3ccc(O)cc3)C(=O)O)C[C@H]1CC[C@@H]1[C@@H]2C[C@@H](O)[C@]2(C)[C@@H](C3=CC(=O)OC3)CC[C@]12O` [3-carbodigoxigenin-glycyl-L-tyrosine], the Mean % bound in assay [1] (control, no antibody) came out at 5.2%; in assay [1] (digoxin standard 0 ng/ml) it was 56.6%; in assay [1] (digoxin standard 1.0 ng/ml), 41.3%; in assay [1] (digoxin standard 2.0 ng/ml), 31.6%; in assay [1] (digoxin standard 3.0 ng/ml), 25.3%; in assay [1] (digoxin standard 5.0 ng/ml) it was 17.9%. Moreover, in assay [1] (digoxin standard .4 ng/ml), the Mean % bound is listed as 51.3%. Besides, the “% bound” value in assay [1] (control, no antibody) was 5.5% and 5.4% and 4.8%; in assay [1] (digoxin standard 0 ng/ml) it was 57.0% and 55.8% and 56.9%; in assay [1] (digoxin standard 1.0 ng/ml), 39.4% and 41.7% and 42.9%; in assay [1] (digoxin standard 2.0 ng/ml), 31.5% and 31.7% and 31.4%; in assay [1] (digoxin standard 3.0 ng/ml), 25.5% and 23.3% and 26.9%; in assay [1] (digoxin standard 5.0 ng/ml), 18.3% and 18.2% and 17.1%. For the same compound, the “% bound” value in assay [1] (digoxin standard .4 ng/ml) was 50.8% and 51.4% and 51.8%.

For `C[C@]12CC[C@H](OC(=O)CCC(=O)N[C@@H](Cc3ccc(O)cc3)C(=O)O)C[C@H]1CC[C@@H]1[C@@H]2CC[C@]2(C)[C@@H](C3=CC(=O)OC3)CC[C@]12O` [3-succinyl digitoxigenin-L-tyrosine], the Mean % bound in assay [2] (control, no antibody) was 18.8%; in assay [2] (setting [3]) it was 70.2%; in assay [2] (setting [4]) it was 67.3%; in assay [2] (setting [5]), 59.9%; in assay [2] (setting [6]) it was 46.8%; in assay [2] (setting [7]), 35.6%. Further, the Mean % bound in assay [2] (setting [8]) is recorded as 27.7%; in assay [2] (setting [9]), 22.9%. Also, the “% bound” value in assay [2] (control, no antibody) is 18.0% and 18.9% and 19.4%; in assay [2] (setting [3]), 70.8% and 70.7% and 69.0%; in assay [2] (setting [4]) it was 67.3% and 67.6% and 66.9%; in assay [2] (setting [5]) it was 59.9% and 60.2% and 59.5%; in assay [2] (setting [6]), 45.8% and 47.3% and 47.2%; in assay [2] (setting [7]), 33.9% and 36.7% and 36.2%. Moreover, the “% bound” value in assay [2] (setting [8]) is 26.5% and 29.4% and 27.1%; in assay [2] (setting [9]) it was 22.2% and 22.5% and 24.0%.

`C[C@]12CC[C@H](OC(=O)CCC(=O)N[C@@H](Cc3ccc(O)cc3)C(=O)O)C[C@H]1CC[C@@H]1[C@@H]2C[C@@H](O)[C@]2(C)[C@@H](C3=CC(=O)OC3)CC[C@]12O` [3-succinyl-digoxigenin-L-tyrosine]: the Mean % bound in assay [1] (control, no antibody) was 5.5%; in assay [1] (digoxin standard 0 ng/ml), 66.8%; in assay [1] (digoxin standard 1.0 ng/ml) it was 49.0%; in assay [1] (digoxin standard 2.0 ng/ml), 35.5%; in assay [1] (digoxin standard 3.0 ng/ml) it was 27.2%; in assay [1] (digoxin standard 5.0 ng/ml) it was 19.6%. Also, the Mean % bound in assay [1] (digoxin standard .4 ng/ml) was determined as 58.5%. For the same compound, the “% bound” value was 5.7% and 6.0% and 4.7% in assay [1] (control, no antibody); 67.2% and 65.4% and 67.7% in assay [1] (digoxin standard 0 ng/ml); 48.6% and 49.8% in assay [1] (digoxin standard 1.0 ng/ml); 35.0% and 34.6% and 36.9% in assay [1] (digoxin standard 2.0 ng/ml); 27.4% and 26.7% and 27.5% in assay [1] (digoxin standard 3.0 ng/ml); 19.9% and 19.3% and 19.6% in assay [1] (digoxin standard 5.0 ng/ml). Moreover, in assay [1] (digoxin standard .4 ng/ml), the “% bound” value was 59.3% and 57.2% and 59.0%.

The record behind these values is patent US4064227A, “Radioimmunoassay method for the determination of cardiotonic glycosides” (Mallinckrodt, Inc., priority 1975, dated 1977).
